Results reported in PMC4386669 (Cell reports, 2014).
Like-named read-outs stand apart in the source and are kept apart here.

Assays:
Ewing sarcoma cell lines [1] = assay: Dose-response cytotoxicity in Ewing sarcoma cell lines; assay type: cell-based
ES-8 EWS cells = assay: Single-cell alkali gel electrophoresis; assay type: cell-based; settings: after 12 hours of exposure to the PARPi
ES-6 cells [2] = assay: Dose-response cytotoxicity in ES-6 cells; assay type: cell-based; settings: for Sensitivity (cytotoxicity): 144 hours
[3] = Plasma and tumor pharmacokinetics in mice with orthotopic xenografts; assay type: in vivo, CD1-nude mice; settings: for concentration at 12 h: CD1-nude, mouse, orthotopic xenograft tumor, po; for Murine equivalent dose (most appropriate dose for twice-daily oral administration in mice): from plasma AUC in mice compared with plasma PK data in patients
EWS cell lines = assay: Drug-pair cytotoxicity with response surface model
[4] = TMZ to 10 mg/kg in mice; BMN-673 to 0.1 mg/kg (of the MED)
ES-6 cells [5] = settings: 72 hours, ref Garnett et al., 2012; cited from earlier work
Ewing sarcoma cell lines [6] = settings: ref Brenner et al., 2012, Garnett et al.; cited from earlier work
ES-6 cells [7] = settings: later timepoints, ref Garnett et al., 2012; cited from earlier work
SAOS2 = assay: Dose-response cytotoxicity in SAOS2; assay type: cell-based
[8] = ref Morton et al., 2005, 2000; cited from earlier work
PARP1 = PARP1 (Homo sapiens, UniProt P09874); settings: 10 micromolar PARPi + 0.01% MMS
Chain of PARP1 (P09874 whole entry): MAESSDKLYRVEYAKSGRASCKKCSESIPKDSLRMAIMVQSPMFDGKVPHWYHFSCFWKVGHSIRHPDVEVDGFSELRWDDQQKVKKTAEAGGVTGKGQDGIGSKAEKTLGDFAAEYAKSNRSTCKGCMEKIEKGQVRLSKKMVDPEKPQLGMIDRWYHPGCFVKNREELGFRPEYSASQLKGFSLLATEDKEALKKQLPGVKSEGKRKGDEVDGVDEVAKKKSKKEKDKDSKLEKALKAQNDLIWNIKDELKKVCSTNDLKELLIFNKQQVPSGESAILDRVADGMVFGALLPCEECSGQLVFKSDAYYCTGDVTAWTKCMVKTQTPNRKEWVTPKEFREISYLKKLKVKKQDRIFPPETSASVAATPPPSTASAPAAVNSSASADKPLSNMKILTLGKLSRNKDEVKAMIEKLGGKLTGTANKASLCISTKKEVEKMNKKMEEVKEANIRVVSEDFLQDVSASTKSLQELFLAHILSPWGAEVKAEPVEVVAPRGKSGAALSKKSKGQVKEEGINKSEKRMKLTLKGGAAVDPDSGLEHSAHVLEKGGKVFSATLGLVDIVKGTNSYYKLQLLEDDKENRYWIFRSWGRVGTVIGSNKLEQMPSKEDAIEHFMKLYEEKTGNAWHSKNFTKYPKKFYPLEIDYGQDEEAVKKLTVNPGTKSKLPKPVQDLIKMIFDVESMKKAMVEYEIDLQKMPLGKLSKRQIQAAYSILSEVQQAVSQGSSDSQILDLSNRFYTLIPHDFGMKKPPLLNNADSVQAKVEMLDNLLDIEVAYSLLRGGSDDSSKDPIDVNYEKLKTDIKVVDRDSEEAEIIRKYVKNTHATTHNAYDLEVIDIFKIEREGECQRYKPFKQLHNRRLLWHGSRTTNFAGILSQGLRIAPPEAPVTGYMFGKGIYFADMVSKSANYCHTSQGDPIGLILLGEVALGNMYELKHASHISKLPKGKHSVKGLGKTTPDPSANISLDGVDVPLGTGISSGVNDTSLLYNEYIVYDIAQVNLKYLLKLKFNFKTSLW

[9] = EW-8, ES-8, and ES-1 cells, 72 hours of exposure
[10] = translocation-positive EWS cell lines, RSM

Compound: Cn1ncnc1[C@H]1c2n[nH]c(=O)c3cc(F)cc(c23)N[C@@H]1c1ccc(F)cc1 [BMN-673]
- Sensitivity (cytotoxicity) (Ewing sarcoma cell lines [1]; [9]): sensitive
- Basal level of DNA damage (comet tail moment) (ES-8 EWS cells; 1 or 10 μM): elevated
- Sensitivity (cytotoxicity) (ES-6 cells [2]): resistant
- concentration at 12 h [3]: ≥ 15 nM
- Murine equivalent dose (most appropriate dose for twice-daily oral administration in mice) [3]: 0.125 mg/kg

Compound: Cn1nnc2c(C(N)=O)ncn2c1=O [TMZ, temozolomide]
- EC50 (Ewing sarcoma cell lines [1]; 144 h): > 100000 nM
- Fold higher concentration of TMZ required for the same level of potentiation as IRN (EWS cell lines; potentiation of PARPi-mediated killing of EWS cells): ≥ 1,000 fold
- Concentration required for the same level of PARPi potentiation (EWS cell lines; [10]): 10 to 100 µM
- Dose reduction needed to make the BMN-673 + TMZ combination tolerable [4]: 70%

Compound: O=C(c1cc(Cc2n[nH]c(=O)c3ccccc23)ccc1F)N1CCN(C(=O)C2CC2)CC1 [olaparib]
- Sensitivity (cytotoxicity) (Ewing sarcoma cell lines [1]; [9]): sensitive
- Basal level of DNA damage (comet tail moment) (ES-8 EWS cells; 10 μM): elevated
- Sensitivity (cytotoxicity) (ES-6 cells [5]): resistant
- Sensitivity of EWS cell lines (Ewing sarcoma cell lines [6]): sensitive
- Sensitivity in colony assays (ES-6 cells [7]): some sensitivity
- Potency compared to other EWS cell lines (ES-6 cells [2]): significantly lower potency
- concentration at 12 h [3]: ≥ 90 nM
- Murine equivalent dose (most appropriate dose for twice-daily oral administration in mice) [3]: 50 mg/kg

Compound: CCc1c2c(nc3ccc(O)cc13)-c1cc3c(c(=O)n1C2)COC(=O)[C@]3(O)CC [SN-38]
- EC50 (Ewing sarcoma cell lines [1]; 144 hours, all EWS cell lines tested excluding ES-6): < 10 nM
- Concentration at which PARPi is significantly potentiated (EWS cell lines; [10]): 1 to 10 nM
- EC50 (SAOS2): < 100 nM
- Cmax and AUC of SN-38 in mouse plasma versus human plasma [8]: slightly higher
- Potency compared to other EWS cell lines (ES-6 cells [2]): significantly lower potency

Compound: C[C@]1(c2nc3c(C(N)=O)cccc3[nH]2)CCCN1 [veliparib]
- Sensitivity (cytotoxicity) (Ewing sarcoma cell lines [1]; all EWS cell lines except ES-6, 144 hours): marginal
- PARP trapping potential (rank order) (PARP1): BMN-673 > olaparib > veliparib
- Sensitivity (cytotoxicity) (ES-6 cells [2]): resistant
- concentration at 12 h [3]: ≥ 50 nM
- Murine equivalent dose (most appropriate dose for twice-daily oral administration in mice) [3]: 12.5 mg/kg
